What was measured:
I-ISG54 promoter = assay: SEAP reporter assay in B16-Blue ISG cells; format: cell-based, murine
Source text: B16-Blue™ ISG cells were derived from the murine B16 F1 melanoma cell line. They express the secreted embryonic alkaline phosphatase (SEAP) reporter gene under the control of the I-ISG54 promoter which is comprised of the IFN-inducible ISG54 promoter enhanced by a multimeric ISRE. Stimulation of B16-Blue™ ISG cells with IFNs, cyclic dinucleotides, such as cGAMP, or type I IFN inducers, such as transfected poly(dA:dT), triggers the activation of the I-ISG54 promoter and the production of SEAP.

STING = assay: SEAP reporter assay in B16-Blue ISG-KO-STING cells; format: cell-based, murine
Source text: B16-Blue™ ISG-KO-STING cells were generated from the B16-Blue™ ISG cell line, a murine B16-F1 melanoma-derived cell line, through stable knockout of the STING gene. They express the secreted embryonic alkaline phosphatase (SEAP) reporter gene under the control of the I-ISG54 promoter which is comprised of the IFN-inducible ISG54 promoter enhanced by a multimeric ISRE. […] Stimulation of these cells with IFN triggers the activation of the I-ISG54 promoter and the production of SEAP.
Referring to FIG. 26, known STING pathways activators, Herpes simplex virus DNA complexed with LyoVec (HSV-LyoVec) and the cyclic dinucleotide 2′,3′-cGAMP were used to validate cell line properties.

BRD [1] = assay: BRD treatment study in heifers: Baytril 100, Seq No 2-F, combination; format: in vivo, cattle; details: observed until day 60 post-diagnosis
BRD [2] = assay: BRD treatment study in beef calves: Draxxin, Seq No 2-F, combination; format: in vivo, cattle; details: 56 days after diagnosis
Description: The purpose of this study was to compare the effectiveness of Draxxin®, Draxxin® and Seq No 2-F, or Seq No 2-F alone in cattle diagnosed with BRD.
The first group was administered 1.1 ml/cwt of Draxxin® subcutaneously at the time of diagnosis. […] A 3 day moratorium followed treatment, and the study concluded 56 days after the diagnosis.

BRD [3] = assay: Metaphylaxis study in feedlot calves at medium risk of BRD versus Micotil; details: calves observed for 56 days
Description: Weaned beef calves with an average weight of 590 lbs and determined to be at medium risk for BRD were selected for this study.
Morbidity, mortality, average daily gain (ADG), dry matter intake (DMI), and feed to weight gain ratio were measured and compared between the study groups.

[4] = system: interferon regulatory factor 3 (IRF-3); assay: IRF-inducible SEAP reporter assay in THP1-Blue ISG (IRF-THP-1) cells
Source text: A human macrophage-like (monocyte) cell line (THP-1), derived from an acute monocytic leukemia patient, is used as a model system for monocyte function. THP1-Blue ISG cells (Invitrogen) were generated by stable integration of an interferon regulatory factor (IRF)-inducible secretory alkaline phosphatase (SEAP) reporter construct (IRF-THP1 cells). The THP-1 cells endogenously contain functional STING (Simulator of interferon genes) pathway molecules, as well as cytosolic DNA recognition receptors. STING receives signals from and is itself a cytosolic DNA surveillance molecule that acts through IRF-3. Activation of STING leads to SEAP production, which is then detectable in the culture supernatant. Thus, activation of the IRF-3 reporter SEAP construct correlates to activation of the STING pathway.
The stably transfected IRF-THP-1 cell line was tested for its functionality by IFN-α1, which is a global activator of different IRF pathways. IRF-THP-1 cells were contacted with human interferon α1 (IFN α1) as a positive control for IRF-3 activation. […] FIG. 4 graphically illustrates IFN α1 activation of IRF-3.

Molecule: Nc1nc2c(ncn2[C@@H]2O[C@@H]3COP(=O)(O)O[C@H]4[C@@H](O)[C@H](n5cnc6c(N)ncnc65)O[C@@H]4COP(=O)(O)O[C@@H]2[C@@H]3O)c(=O)[nH]1 [2′,3′-cGAMP]
- signal (interferon-response element readout) (I-ISG54 promoter; parental B16-Blue ISG cell line, FIG. 26): significant signals
- signal (interferon-response element readout) (STING): completely abrogated

Molecule: Nc1nc2c(ncn2[C@@H]2O[C@@H]3COP(=O)(O)O[C@H]4[C@@H](O)[C@H](n5cnc6c(N)ncnc65)O[C@@H]4COP(=O)(O)O[C@H]3[C@H]2O)c(=O)[nH]1 [3′,3′-cGAMP]
- SEAP signal (I-ISG54 promoter; controls, FIG. 21): expected specific signals

Molecule: CCN1CCN(c2cc3c(cc2F)c(=O)c(C(=O)O)cn3C2CC2)CC1 [Baytril 100, enrofloxacin]
- ADG (deads out) (BRD [1]): 1.8 lbs/day
- Avg wt gain (deads in) (BRD [1]): 24.3 lbs
- Avg wt gain (deads out) (BRD [1]): 87.00 lbs
- BRD Chronicity (BRD [1]): 22.10%
- BRD case-fatality (BRD [1]): 10.0%
- BRD repulls (BRD [1]): 44.8%

Molecule: CCCNC[C@]1(O)[C@H](C)O[C@@H](O[C@H]2[C@H](C)[C@@H](O[C@@H]3O[C@H](C)C[C@H](N(C)C)[C@H]3O)[C@](C)(O)C[C@@H](C)CN[C@H](C)[C@@H](O)[C@](C)(O)[C@@H](CC)OC(=O)[C@@H]2C)C[C@@]1(C)OC [Draxxin, tulathromycin]
- ADG (deads in) (BRD [2]): 3.2 lbs/day
- ADG (deads out) (BRD [2]): 3.3 lbs/day
- Avg wt gain (deads in) (BRD [2]): 181.1 lbs
- Avg wt gain (deads out) (BRD [2]): 187.0 lbs
- BRD Chronicity (BRD [2]): 4.0%
- BRD case-fatality (BRD [2]): 1.3%
- BRD morbidity (BRD [2]): 29.2%
- BRD repulls (BRD [2]): 37.2%
- Time to BRD Dx (BRD [2]): 18.8 days

Molecule: CC[C@H]1OC(=O)C[C@@H](O)[C@H](C)[C@@H](O[C@@H]2O[C@H](C)[C@@H](O)[C@H](N(C)C)[C@H]2O)[C@@H](CCN2C[C@H](C)C[C@H](C)C2)C[C@@H](C)C(=O)/C=C/C(C)=C/[C@@H]1CO[C@@H]1O[C@H](C)[C@@H](O)[C@@H](OC)[C@H]1OC [Micotil]
- ADG (BRD [3]): 2.96
- BRD Chronicity (BRD [3]): 27.90%
- BRD case-fatality (BRD [3]): 3.95%
- BRD repulls (BRD [3]): 17.9%
- DMI (BRD [3]): 12.96
- Feed: Gain (BRD [3]): 4.50
- Overall BRD Mortality (BRD [3]): 0.44%
- Time to BRD Dx (BRD [3]): 28.1

B1: IFN-α1: human interferon α1, positive control, global activator of different IRF pathways (protein, UniProt P01562 24-189, looked up)
Interferon alpha-1/13: CDLPETHSLDNRRTLMLLAQMSRISPSSCLMDRHDFGFPQEEFDGNQFQKAPAISVLHELIQQIFNLFTTKDSSAAWDEDLLDKFCTELYQQLNDLEACVMQEERVGETPLMNADSILAVKKYFRRITLYLTEKKYSPCAWEVVRAEIMRSLSLSTNLQERLRRKE
- SEAP signal (I-ISG54 promoter; IFN-α1 dosing, FIG. 20): clear dose-response relationship
- SEAP signal, dose-response curve ([4]; 1.5625-50 μg/ml, FIG. 11): dose-dependent response
- SEAP signal ([4]; IFN-α1 dosing, FIG. 4): clear dose-response relationship
